From ChEMBL document CHEMBL3507680, “University of Dundee, Gates Library screen for HepG2 cell viability”

Test: Human HepG2 cell viability assay in 384 well format
Type: toxicity, cell-based
Set-up: dose 125 nL, time 70.5 hour; concentration not given beside the values
Conditions: HepG2 cells, read-out: Inhibition

SMILES | cytotoxicity at 70.5 h [%]
CNC(=O)CN1CCC(NC2CSCCc3ccccc32)CC1 (stereo not drawn) | 0.136
COCc1nn(C(C)C)c2c1CCN(Cc1nccs1)C2 | 12.2
CN1CCN(CC2CN(CC3CC3)Cc3nccn3C2)CC1 (stereo not drawn) | -6.02
O=S(=O)(NCc1ccccc1Cn1cncn1)C1CCCC1 | 2.05
CCOc1ccc2nc(NC(=O)c3c(C(=O)O)cnn3C)sc2c1 | -14.2
COc1cccc(-c2cc(NCCO)nc3[nH]ccc23)n1 | -10.9
CC(C)CNC(=O)CCN1C(=O)CCc2cc(F)ccc21 | -4.13
CCOc1ncccc1NC(=O)NCC(O)c1ccccc1OC (stereo not drawn) | 11.2
O=C(CCc1ccccc1)N1CCC(c2n[nH]c(C3CC3)n2)CC1 | -7.31
Cc1ccc(OCc2occc2C(=O)N2CC[C@H](CO)[C@@H](O)C2)cc1 | -8.34
O=C(Cn1nc(-c2ccc(F)cc2)oc1=O)NCc1ccc(F)cc1 | 30.8
CCOc1nc2cnccc2n(CC(=O)NCCc2ccccc2)c1=O | 28.7
OCC1(Cc2ccc(Cl)cc2)CCN(Cc2ccccc2O)CC1 | -4.64
COc1cc(C)nc(N2CCN(C(=O)CN(C)C(C)C)CC2)n1 | 29
Cc1ccc(C)c2c(O)cc(CNCc3ccc(S(N)(=O)=O)cc3)nc12 | -4.39
Cc1ncnc2c1CCN(C(=O)N(C)C)CC2 | -0.115
O=C(c1cnc(O)cc1O)N1CCCC(CCc2ccccc2F)C1 (stereo not drawn) | -11.4
COc1ccc(Cl)cc1-n1c(COC(C)C)n[nH]c1=O | -9.9
Cc1nc(Nc2cnccn2)cc(C2CCN(c3ncccn3)C2)n1 (stereo not drawn) | -12.7
O=C1CO[C@@H]2CN(CC3CCOCC3)C[C@H]2N1CC1CC1 | -2.81
CC(=O)NC1CCCN(c2nc3ccccc3cc2CO)C1 (stereo not drawn) | 2.9
COCCC1COC2(CCN(C(=O)c3ccncc3)CC2)C1 (stereo not drawn) | 30.8
Cc1csc(CNC(=O)NC2CCCc3c2cnn3CCO)n1 (stereo not drawn) | -9.89

SMILES | cytotoxicity at 70.5 h [%]
CCSc1ccccc1C(=O)N(CCOC)Cc1ccoc1 | 25
c1ccc(CCCN2CCN(c3ccc4nncn4n3)CC2)cc1 | 0.863
Cn1cc(CN(Cc2cccc(-n3cccn3)c2)C2CC2)cn1 | 43.4
CNC(=O)CCS(=O)(=O)Cc1nnnn1-c1ccccc1 | -3.85
COc1ccccc1COCC(O)CN(C)c1ccc(C)cc1C (stereo not drawn) | 15.1
CN1CCCC(CNS(=O)(=O)N2CCc3ccccc3C2)C1 (stereo not drawn) | -10.7
COc1ccc(C2CCN(CCCC#N)CC2)cc1 | 27.7
Cc1cc(C(=O)N2CCCC(C)C2)ccc1NCc1nc(C(C)C)no1 (stereo not drawn) | -9.64
CCSCCNc1cc(C)nc2c(C)c(C)nn12 | -4.65
CCN1CCCC(O)(c2nc(C)c(CCOc3ccccc3Cl)s2)CC1 (stereo not drawn) | -7.73
CN1CCc2nc(C3CCN(C(=O)CCC4CCCC4)CC3)ncc2C1 | -16.6
CCn1cc(NC(=O)NCC(c2ccc(OC)cc2)N(C)C)cn1 (stereo not drawn) | -5.2
CCC1CCCCN1Cc1nc2c(cnn2C)c(=O)[nH]1 (stereo not drawn) | -0.935
COc1ccc(OCc2cc(C(=O)N3CCC(O)CC3)n[nH]2)c(Cl)c1 | -5.72
Cn1cc(CN2CCC3(CCCN(Cc4ccccn4)C3)CC2)cn1 | -5.87
CCN(Cc1ccccc1)C(=O)CN1CCOC(Cn2cncn2)C1 (stereo not drawn) | 5.38
O=C(COCC(F)(F)F)NS(=O)(=O)c1ccc2c(c1)OCCCO2 | -6.81
CCOCCCNc1ncc(-c2onc(C)c2C)c(-c2ccco2)n1 | -10.1
CSCCCN1C[C@H](NC(=O)c2ccc(C#N)nc2)[C@@H](C2CC2)C1 | -0.265
CN(C)CCn1ccnc1C1CCN(C(=O)CCc2ccncc2)CC1 | -5.61
Cc1ccnc(C2CCCN2C(=O)CN(C)C)n1 (stereo not drawn) | -1.48
Cc1nc(N(C)C)ncc1C(=O)N[C@H]1Cc2ccccc2[C@@H]1N | -5.1
Cc1nc(C2CCCN(C(=O)CN3CCCC3=O)C2)sc1C (stereo not drawn) | -15.5

SMILES | cytotoxicity at 70.5 h [%]
Cc1ccc(CN[C@@H]2COC[C@H]2Cc2cc(C)no2)cc1 | -7.63
Cc1nc(C(=O)N2CCC(c3cc(CCO)n(C)n3)C2)co1 (stereo not drawn) | 16.6
COc1cc(CN2CCN(CC3CC3)[C@@H]3CS(=O)(=O)C[C@@H]32)cc(OC)c1 | 3.14
CC(C)SCc1cccc(NC2CCN(C)C2=O)c1 (stereo not drawn) | -15.1
Cc1ccc(OC2(C(=O)NC(C)Cc3ccncc3)CCNCC2)cc1 (stereo not drawn) | -6.8
CCSCC(C)NCc1nncn1C1CCCCC1 (stereo not drawn) | -2.76
CCSCCNC(=O)c1ccc(S(=O)(=O)N2C[C@@H]3C[C@H]2CN3)cc1 | -4.95
Cn1cccc1C(=O)N1CCC2(CCCN(CC3CCC3)C2=O)C1 (stereo not drawn) | -2.25
CC(C)Sc1ncccc1C(=O)NCc1ccc(CS(C)(=O)=O)cc1 | 6.05
O=C(CCNc1ncccn1)N1CCCC(n2ccnc2)C1 (stereo not drawn) | -2.71
CC(NC(=O)NCCCc1n[nH]c(N)c1C#N)c1ccc(Cl)cc1 (stereo not drawn) | -0.0754
CN(C)CCN1CCCC12CCCN(C(=O)c1cccnc1)C2 (stereo not drawn) | -5.22
Cc1nnc([C@@]23CCO[C@@H]2CCN(Cc2scnc2C)C3)o1 | -10.2
CC(O)CN1CCc2onc(-c3ccccc3F)c2C1 (stereo not drawn) | -22.3
CCC(CO)N(Cc1ccccn1)Cc1c[nH]nc1-c1ccc(F)cc1 (stereo not drawn) | -6.02
CC(C)N1CCC(Cc2cncc(-c3ccccc3C(=O)O)n2)C1 (stereo not drawn) | -4.44
COCc1ccccc1NC(=O)[C@@H]1CCCN1C(=O)c1ccco1 | -8.02
NC(=O)CN1CCCC1c1csc(Nc2cnccn2)n1 (stereo not drawn) | -9.23
Cc1ccc(N2CC[C@H](OCC3CC3)[C@@H]2Cc2cnn(C)c2)nn1 | 0.692
Cc1nc(C)n(C2CCCN(C(=O)COc3ccccc3)C2)n1 (stereo not drawn) | -8.86
O=C(O)c1ccccc1-c1ccc(Cn2c(=O)cc[nH]c2=O)cc1 | -0.721
O=C(CCC(=O)N1CCc2ccccc2C1)c1cccs1 | 2.72
Cc1ccc(Br)c(S(=O)(=O)NCc2ccnn2C)c1 | -5.04

SMILES | cytotoxicity at 70.5 h [%]
CCS(=O)(=O)CCN1CCCC1c1noc(C2CC2)n1 (stereo not drawn) | 27
CC(=O)N1CCC(CN2CCN(Cc3nccn3C)C(C)C2)CC1 (stereo not drawn) | 2.21
CCc1nnc(CN2CCC(C3CCCCCN3C(=O)C3CC3)CC2)o1 (stereo not drawn) | -1.17
CC(C)(C(=O)N[C@@H]1CCC[C@@H](O)[C@@H]1O)c1cccc(F)c1 | -4.01
O=C(O)c1cc(S(=O)(=O)Nc2cccc3c2OCCO3)c(Cl)cc1F | -124
CC(NC(=O)c1cccs1)C(=O)Nc1cccnc1N1CCCCC1 (stereo not drawn) | 2.11
CSc1ccc(CN(CCO)C(=O)CCNC(C)=O)cc1 | -14.7
Cc1nc2ccnn2c(C)c1CCC(=O)N1CCC(C(N)=O)CC1 | 2.4
Cc1ccc(C(=O)N2C[C@@H]3[C@@H](C2)OCC(=O)N3Cc2cccnc2)o1 | -2.11
Cc1cnc(C(=O)N2C[C@H]3CN(Cc4cccnc4)C[C@H]3C2)cn1 | 6.07
Cc1cc(CNc2cccc(C(=O)N(C)c3ccccc3)c2)no1 | -0.804
CN1C[C@H](NC(=O)c2cscn2)[C@@H]2OCCC[C@@H]21 | -6.86
Cc1nnsc1C(=O)N1CCC(c2nc3ccccc3[nH]2)CC1 | 24
C[C@@H]1CN(CC(C)(C)N2CCCCC2)CC[C@@]1(O)C1CC1 | -5.05
CCc1nc(CC)n(CC(=O)N(C)Cc2ccc(F)cc2)n1 | -4.65
CC(=O)N1CCN(C(=O)C(C)n2cncn2)CC1 (stereo not drawn) | 5.31
CN(Cc1csc(-c2cccs2)n1)CC(O)CO (stereo not drawn) | 18.7
Cc1ccc(-c2cc(CNC(=O)NC3CCCCNC3=O)on2)cc1 (stereo not drawn) | -8.17
O=C(NCc1cncc2c1CCN(Cc1ccc(F)cc1)C2)C1CC1 | -8.1
CC(C(=O)NCc1ccc(N2CCCC2)nc1)S(C)(=O)=O (stereo not drawn) | 15.7
CN1CC(=O)N(c2cnn(C)c2)CC12CCN(Cc1nccn1C)C2 (stereo not drawn) | -4.58
COCCOCC(=O)NC(C#N)c1ccccc1C (stereo not drawn) | -7.18
Cc1cc(NC(=O)NCC(O)c2ccc(F)c(F)c2)n(C)n1 (stereo not drawn) | 13.9

SMILES | cytotoxicity at 70.5 h [%]
CCc1ncc(CN(C)C2CCN(c3sccc3C#N)C2=O)s1 (stereo not drawn) | -2.11
O=C(NCC1Cn2nnc(-c3ccsc3)c2CO1)c1ccc[nH]1 (stereo not drawn) | 1.74
N#Cc1ccc(S(=O)(=O)NC(=O)C2CC2)c(C(F)(F)F)c1 | -13.8
NC(=O)N1CCCC(C(=O)NCc2noc(Cc3ccccc3)n2)C1 (stereo not drawn) | -12.7
NC(=O)C1CCCN1CCCc1ccc(C(F)(F)F)cc1 (stereo not drawn) | -5.39
FC(F)(F)c1cc(N2CCc3ncnc(NC4CC4)c3CC2)ncn1 | 5.67
CC(C)n1ccnc1C1CCN(Cc2ccc(C(F)(F)F)c(F)c2)CC1 | 23.4
Cn1c(-c2ccccc2Cl)nc2cc(C(=O)NCCS(C)(=O)=O)cnc21 | -7.15
Cc1csc(C2CCCN(C(=O)c3cnc4n[nH]c(C)c4c3)C2)n1 (stereo not drawn) | -10.8
Cc1nn(Cn2ccc(C(=O)N3CCC(C)CC3)n2)c(C)c1Cl | -13.2
CCC(CN1CCOCC1)NC(=O)Cc1c(C)[nH]c2cc(C)cc(C)c12 (stereo not drawn) | 0.203
COCCNc1nc(NCCc2ccccc2)nc2nccnc12 | -1.44
CN(C)c1cc(CNC(=O)Nc2ccc(N3CCCC3)nc2)ccn1 | 1.53
CC(C)C(=O)N1CCN(c2cc(N(C)C)cnn2)CC1 | -5.3
CN(CCNC(=O)Nc1ccn(C)n1)Cc1ccc(F)cc1 | -22.5
O=C(CC1CCCC1)N1CCN2C[C@@H](CO)[C@H](c3ccccc3)[C@H]2C1 | 24.2
Nc1nccc(N2CCCC(CO)(CCOc3ccccc3)C2)n1 (stereo not drawn) | 8.14
CCCSCC(=O)N1C[C@H]2CC[C@@H]1CN(c1ncccn1)C2 | -14.1
Cc1cccc(CN2C(=O)CC[C@@H]3[C@H]2CCN3Cc2cccnc2)n1 | -0.831
OC1(CN2CCCC2)CCCN(c2ncnc3[nH]cnc23)C1 (stereo not drawn) | -2.89
COc1ccc(CC(=O)Nc2ccc3ncn(C)c(=O)c3c2)cc1 | -2.82
